Reference: US9868705B2, “Tetra-aryl cyclobutane inhibitors of androgen receptor action for the treatment of hormone refractory cancer” (The Board of Trustees of the University of Illinois, priority 2013, dated 2018)
Changes are numbered by the printed parent chain.

Tests used:
AR NTD/LBD interaction = biological target: T1, AR NTD/LBD interaction (Homo sapiens, UniProt P10275); experiment: AR NTD/LBD interaction reporter assay in CV-1 cells; type: cell-based
T1 construct: expressed in transfected cells; host or cells: CV-1
T1 sequence (P10275 1-920): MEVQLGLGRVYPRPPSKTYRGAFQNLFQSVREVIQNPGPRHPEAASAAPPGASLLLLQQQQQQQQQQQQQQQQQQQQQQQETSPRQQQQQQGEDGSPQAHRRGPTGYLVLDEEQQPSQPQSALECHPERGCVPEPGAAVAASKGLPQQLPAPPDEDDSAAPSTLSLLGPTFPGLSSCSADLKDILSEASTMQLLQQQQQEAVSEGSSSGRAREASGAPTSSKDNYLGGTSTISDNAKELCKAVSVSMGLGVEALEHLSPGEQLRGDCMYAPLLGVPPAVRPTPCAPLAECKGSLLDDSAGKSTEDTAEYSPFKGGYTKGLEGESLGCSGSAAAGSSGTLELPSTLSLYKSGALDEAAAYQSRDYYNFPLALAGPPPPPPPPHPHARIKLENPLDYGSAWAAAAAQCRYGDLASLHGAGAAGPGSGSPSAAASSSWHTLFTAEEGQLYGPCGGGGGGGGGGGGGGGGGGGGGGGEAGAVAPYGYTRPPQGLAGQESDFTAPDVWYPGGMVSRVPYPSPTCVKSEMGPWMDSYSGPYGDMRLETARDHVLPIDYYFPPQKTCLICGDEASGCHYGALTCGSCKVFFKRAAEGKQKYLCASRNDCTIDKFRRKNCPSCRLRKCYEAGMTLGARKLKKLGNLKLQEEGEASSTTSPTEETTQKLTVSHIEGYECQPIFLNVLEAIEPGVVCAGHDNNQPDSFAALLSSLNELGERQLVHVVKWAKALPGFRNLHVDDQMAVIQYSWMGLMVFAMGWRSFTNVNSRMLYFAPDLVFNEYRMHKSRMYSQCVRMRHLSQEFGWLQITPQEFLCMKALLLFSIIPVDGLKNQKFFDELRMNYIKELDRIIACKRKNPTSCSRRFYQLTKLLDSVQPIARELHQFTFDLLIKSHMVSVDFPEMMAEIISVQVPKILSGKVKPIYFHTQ
Source text: Accordingly, we analyzed the disruption of AR/DNA binding using a luciferase reporter gene assay transfected with an AR-VP16 construct that is constitutively active upon DNA binding, regardless of the ability of AR to recruit transcriptional machinery (FIG. 40A). Simultaneously, we examined CV-1 cells transfected with an AR construct that is only transcriptionally active when there is a positive interaction between the NTD and C-terminal LBD ([…]) (FIG. 40B).

W741C AR = biological target: T2, W741C AR (Homo sapiens, UniProt P10275, W742C); experiment: MMTV-luciferase transcription assay in CV-1 cells, W741C AR
T2 sequence (P10275 1-920 W742C): T1 sequence (P10275 1-920) with W742C

inhibition of the NTD/LBD interaction (AR NTD/LBD interaction): inhibitory activity
IC50 (W741C AR): 2360 nM
SMILES: COc1cc([C@H]2[C@H](c3ccccc3)[C@H](c3cc(OC)nc(OC)n3)[C@H]2c2ccccc2)nc(OC)n1 [CB-22]
